We go through 21 molecules from PubChem BioAssay AID330 (DTP/NCI, 2004).

“And” between values parts separate entries of the source, which are not always exact repeats. Equal entries are not always repeated. Toxic doses and inconclusive results are not listed.

The experiment has as its system P388 leukemia ip, CD2F1 mice, survival T/C. Briefly: NCI In Vivo Anticancer Drug Screen. Data for tumor model P388 Leukemia (intraperitoneal) in CD2F1 (CDF1) mice. To be noted: endpoint: median survival time, higher = longer survival. Summed up: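 Mice carrying the transplanted tumor received test compound or vehicle. Survival was recorded in each group, and the value is the treated-group measurement divided by that of the vehicle-treated control group.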

[1] abbreviates: dose: 100.0 mg/kg/injection, schedule: Q01DX009 (ip), vehicle: other.
[2] abbreviates: dose: 200.0 mg/kg/injection, schedule: Q01DX009 (ip), vehicle: other.
The mark [3] stands for this setting: dose: 12.5 mg/kg/injection, schedule: Q01DX009 (ip), vehicle: Klucel (hydroxypropylcellulose) (HPC).
Where [4] appears, read: dose: 25.0 mg/kg/injection, schedule: Q01DX009 (ip), vehicle: Klucel (hydroxypropylcellulose) (HPC).
[5] abbreviates: dose: 50.0 mg/kg/injection, schedule: Q01DX009 (ip), vehicle: Klucel (hydroxypropylcellulose) (HPC).
[6] abbreviates: dose: 12.5 mg/kg/injection, schedule: Q01DX009 (ip), vehicle: saline.
[7] abbreviates: dose: 100.0 mg/kg/injection, schedule: Q01DX009 (ip), vehicle: Klucel (hydroxypropylcellulose) (HPC).
The mark [8] stands for this setting: dose: 200.0 mg/kg/injection, schedule: Q01DX009 (ip), vehicle: Klucel (hydroxypropylcellulose) (HPC).

Turning to `c1ccc2ccccc2c1`, the T/C (dose: 50.0 mg/kg/injection, schedule: Q01DX009 (ip), vehicle: other) is 100 % of control; the T/C under setting [1] is 104 % of control; the T/C under setting [2] was 107 % of control.
For `C[n+]1ccccc1-c1nc(-c2cccc[n+]2C)nc(-c2cccc[n+]2C)n1`, the T/C was 96 % of control under setting [3] and 88 % of control under setting [4].
As for `N#CC(Br)(C#N)Cc1ccccc1`, the T/C is, setting by setting: under setting [4], 87 % of control; under setting [5], 100 % of control.
On to `COc1cc(NC(C)=O)c(OC)cc1N`, for which the T/C (dose: 25.0 mg/kg/injection, schedule: Q04DX002 (ip), vehicle: saline) was 104 % of control and the T/C (dose: 50.0 mg/kg/injection, schedule: Q04DX002 (ip), vehicle: saline) is 98 % of control.
With `CCC(C(=O)N(C)C)n1nc(Br)c(Br)c1C` (stereo not drawn), the T/C (dose: 100.0 mg/kg/injection, schedule: Q04DX003 (ip), vehicle: Klucel (hydroxypropylcellulose) (HPC)) is 97 % of control and the T/C (dose: 200.0 mg/kg/injection, schedule: Q04DX003 (ip), vehicle: Klucel (hydroxypropylcellulose) (HPC)) is 95 % of control.
Consider `O=[N+]([O-])C(Br)(CO)CO`, for which the T/C by setting is: (dose: 3.12 mg/kg/injection, schedule: Q01DX009 (ip), vehicle: saline) 100 % of control; (dose: 6.25 mg/kg/injection, schedule: Q01DX009 (ip), vehicle: saline) 103 % of control; under setting [6], 114 % of control and 118 % of control.
As to `Cc1ccc2c(c1O)NC(O)c1cccn1C2=O` (stereo not drawn), the T/C is 99 % of control (dose: 0.1 mg/kg/injection, schedule: Q01DX005 (ip), vehicle: water); 111 % of control (dose: 0.2 mg/kg/injection, schedule: Q01DX005 (ip), vehicle: water); 100 % of control (dose: 0.4 mg/kg/injection, schedule: Q01DX005 (ip), vehicle: water); 98 % of control (dose: 0.8 mg/kg/injection, schedule: Q01DX005 (ip), vehicle: water); 96 % of control (dose: 1.6 mg/kg/injection, schedule: Q01DX005 (ip), vehicle: water); 92 % of control (dose: 5.0 mg/kg/injection, schedule: Q01DX005 (ip), vehicle: distilled water + Tween-80). Also, the T/C reads like this: (dose: 10.0 mg/kg/injection, schedule: Q01DX005 (ip), vehicle: distilled water + Tween-80) 98 % of control; (dose: 20.0 mg/kg/injection, schedule: Q01DX005 (ip), vehicle: distilled water + Tween-80) 91 % of control; (dose: 80.0 mg/kg/injection, schedule: Q01DX005 (ip), vehicle: distilled water + Tween-80) 86 % of control.
In the case of `c1ccc(C[n+]2ccc3ccccc3c2)cc1`, the T/C by setting is: (dose: 6.25 mg/kg/injection, schedule: Q04DX003 (ip), vehicle: saline with Tween-80) 101 % of control; (dose: 12.5 mg/kg/injection, schedule: Q04DX003 (ip), vehicle: saline with Tween-80) 100 % of control; (dose: 25.0 mg/kg/injection, schedule: Q04DX003 (ip), vehicle: saline with Tween-80) 101 % of control.
Consider `c1cc(C2CO2)ccc1Oc1ccc(C2CO2)cc1` (stereo not drawn), for which the T/C is 103 % of control under setting [5], 88 % of control under setting [7] and 93 % of control under setting [8].
As to `CC(=O)N=c1nc(N)nc2n(O)cc(-c3ccccc3)nc1-2`, the T/C was 113 % of control (dose: 31.25 mg/kg/injection, schedule: Q01DX009 (ip), vehicle: saline with Tween-80); 99 % of control (dose: 62.5 mg/kg/injection, schedule: Q01DX009 (ip), vehicle: saline with Tween-80); 97 % of control (dose: 125.0 mg/kg/injection, schedule: Q01DX009 (ip), vehicle: saline with Tween-80).
Regarding `O=C1C=CC(Nc2ccc(Cl)c(Cl)c2)C1Nc1ccc(Cl)c(Cl)c1` (stereo not drawn), the T/C is 100 % of control (dose: 60.0 mg/kg/injection, schedule: Q01DX005 (ip), vehicle: saline with Tween-80); 93 % of control (dose: 120.0 mg/kg/injection, schedule: Q01DX005 (ip), vehicle: saline with Tween-80); 93 % of control (dose: 240.0 mg/kg/injection, schedule: Q01DX005 (ip), vehicle: saline with Tween-80).
Take `CCN(CC)CCN1CC(=O)N2Cc3ccccc3CN2C(=O)C1`: the T/C (dose: 50.0 mg/kg/injection, schedule: Q01DX005 (ip), vehicle: saline with Tween-80) was 101 % of control and the T/C (dose: 100.0 mg/kg/injection, schedule: Q01DX005 (ip), vehicle: saline with Tween-80) was 104 % of control.
For the molecule `COCC1(C)CCCC2(C)C3=CC(O)CCC3CCC12` (stereo not drawn), the T/C by setting is: (dose: 100.0 mg/kg/injection, schedule: Q01DX001 (ip), vehicle: saline) 98 % of control; (dose: 200.0 mg/kg/injection, schedule: Q01DX001 (ip), vehicle: saline) 97 % of control; (dose: 400.0 mg/kg/injection, schedule: Q01DX001 (ip), vehicle: saline) 98 % of control.
Take `CCC1(c2ccccc2)CCCC(C(N)=O)C1=O` (stereo not drawn): the T/C runs as follows: (dose: 100.0 mg/kg/injection, schedule: Q01DX001 (ip), vehicle: Klucel (hydroxypropylcellulose) (HPC)) 100 % of control; (dose: 200.0 mg/kg/injection, schedule: Q01DX001 (ip), vehicle: Klucel (hydroxypropylcellulose) (HPC)) 99 % of control; (dose: 400.0 mg/kg/injection, schedule: Q01DX001 (ip), vehicle: Klucel (hydroxypropylcellulose) (HPC)) 101 % of control.
On to `Nc1cccc(NCc2ccncc2)n1`, for which the T/C was 98 % of control and 99 % of control and 100 % of control (dose: 6.25 mg/kg/injection, schedule: Q01DX005 (ip), vehicle: Klucel (hydroxypropylcellulose) (HPC)); 100 % of control and 101 % of control and 94 % of control (dose: 12.5 mg/kg/injection, schedule: Q01DX005 (ip), vehicle: Klucel (hydroxypropylcellulose) (HPC)); 100 % of control (2×) and 96 % of control (dose: 25.0 mg/kg/injection, schedule: Q01DX005 (ip), vehicle: Klucel (hydroxypropylcellulose) (HPC)); 113 % of control (dose: 100.0 mg/kg/injection, schedule: Q01DX005 (ip), vehicle: Klucel (hydroxypropylcellulose) (HPC)).
As to `COc1cc(NC(=O)C2=C(C)NC(C)=C(C(=O)Nc3cc(OC)c(Cl)cc3OC)C2c2cccc([N+](=O)[O-])c2)c(OC)cc1Cl`, the T/C by setting is: (dose: 60.0 mg/kg/injection, schedule: Q01DX005 (ip), vehicle: Klucel (hydroxypropylcellulose) (HPC)) 89 % of control; (dose: 120.0 mg/kg/injection, schedule: Q01DX005 (ip), vehicle: Klucel (hydroxypropylcellulose) (HPC)) 89 % of control.
On to `Cc1cc(NC(=O)C(=O)O)cc2c(=O)cc(C(=O)O)[nH]c12`, for which the T/C is 102 % of control under setting [4]; 117 % of control and 124 % of control under setting [5].
Turning to `Cc1ccc(S(=O)(=O)CS(N)(=O)=O)cc1`, the T/C runs as follows: (dose: 100.0 mg/kg/injection, schedule: Q01DX001 (ip), vehicle: saline with Tween-80) 99 % of control; (dose: 200.0 mg/kg/injection, schedule: Q01DX001 (ip), vehicle: saline with Tween-80) 118 % of control; (dose: 400.0 mg/kg/injection, schedule: Q01DX001 (ip), vehicle: saline with Tween-80) 97 % of control.
Take `CCOC(=O)/C(C(C)=O)=C1/c2c(ccc(OC)c2OC)C=C2c3cc4c(cc3CCN21)OCO4`: the T/C reads like this: (dose: 0.63 mg/kg/injection, schedule: Q01DX009 (ip), vehicle: water) 105 % of control; (dose: 1.25 mg/kg/injection, schedule: Q01DX009 (ip), vehicle: water) 108 % of control; (dose: 2.5 mg/kg/injection, schedule: Q01DX009 (ip), vehicle: water) 101 % of control; (dose: 5.0 mg/kg/injection, schedule: Q01DX009 (ip), vehicle: water) 124 % of control; (dose: 10.0 mg/kg/injection, schedule: Q01DX009 (ip), vehicle: water) 101 % of control; (dose: 20.0 mg/kg/injection, schedule: Q01DX009 (ip), vehicle: water) 107 % of control.
`CC(C)=C(C#N)NC(C)(C)C`: the T/C is, setting by setting: under setting [6], 101 % of control; (dose: 25.0 mg/kg/injection, schedule: Q01DX009 (ip), vehicle: saline) 100 % of control; (dose: 50.0 mg/kg/injection, schedule: Q01DX009 (ip), vehicle: saline) 98 % of control and 94 % of control.
In the case of `NC(CSC(c1ccccc1)(c1ccccc1)c1ccc(CBr)cc1)C(=O)O` (stereo not drawn), the T/C was 86 % of control under setting [3]; 120 % of control (dose: 12.5 mg/kg/injection, schedule: Q01DX009 (ip), vehicle: other); 90 % of control under setting [4]; 95 % of control under setting [5]; 88 % of control under setting [7]; 151 % of control and 159 % of control under setting [1]. For the same molecule, the T/C reads like this: under setting [8], 90 % of control; under setting [2], 162 % of control and 178 % of control; (dose: 400.0 mg/kg/injection, schedule: Q01DX009 (ip), vehicle: Klucel (hydroxypropylcellulose) (HPC)) 94 % of control; (dose: 400.0 mg/kg/injection, schedule: Q01DX009 (ip), vehicle: other) 182 % of control.
